Data: PubChem BioAssay (NCI)
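Cells were grown in 96-well plates and exposed to each compound for 48 hours at five concentrations; endpoints were interpolated linearly between bracketing concentrations, or set to the highest concentration if not reached. GI50 is the concentration that inhibits growth by half. TGI: total growth inhibition.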

Tests used:
Test in all cases: growth of human tumour cells (NCI), 48 h
SF-268 CNS = test system: SF-268 CNS
HCT-116 colon = test system: HCT-116 colon
SK-MEL-28 melanoma = test system: SK-MEL-28 melanoma
786-0 renal = test system: 786-0 renal
M14 melanoma = test system: M14 melanoma
UACC-62 melanoma = test system: UACC-62 melanoma
EKVX NSCLC = test system: EKVX NSCLC
IGROV1 ovarian = test system: IGROV1 ovarian
COLO 205 colon = test system: COLO 205 colon
CAKI-1 renal = test system: CAKI-1 renal

| Compound | GI50 (SF-268 CNS) | TGI (SF-268 CNS) | GI50 (HCT-116 colon) | TGI (HCT-116 colon) | GI50 (SK-MEL-28 melanoma) | TGI (SK-MEL-28 melanoma) | GI50 (786-0 renal) | TGI (786-0 renal) | GI50 (M14 melanoma) | TGI (M14 melanoma) | GI50 (UACC-62 melanoma) | TGI (UACC-62 melanoma) | GI50 (EKVX NSCLC) | TGI (EKVX NSCLC) | GI50 (IGROV1 ovarian) | TGI (IGROV1 ovarian) | GI50 (COLO 205 colon) | TGI (COLO 205 colon) | GI50 (CAKI-1 renal) | TGI (CAKI-1 renal) |
| --- | --- | --- | --- | --- | --- | --- | --- | --- | --- | --- | --- | --- | --- | --- | --- | --- | --- | --- | --- | --- |
| CCCCCCCCCCCCC(=O)[O-].CCCCCCCCCCCCC(=O)[O-].CCCCCCCCCCCCC(=O)[O-].CCCCCCCCCCCCC(=O)[O-].[Mo+2].[Mo+2] | 17.3 µM | 45.1 µM | 8.98 µM | 27.3 µM | 21.4 µM | 65.7 µM | 3.68 µM | 16 µM | 11.7 µM | 27.8 µM | 11.7 µM | 26.9 µM | 19.7 µM | 35.8 µM | 15.5 µM | 40.2 µM | 19.3 µM | 46.4 µM | – | – |
| S=c1ssc(Sc2ccccn2)c1Cl | 13.5 µM | 26.4 µM | – | – | – | – | 4.09 µM | 14.4 µM | 14 µM | 27 µM | 15.3 µM | 28.6 µM | 12.5 µM | 30.3 µM | – | – | 19.2 µM | 38.7 µM | 17.6 µM | 31.4 µM |
| O=C(O)c1c[nH]cc1C(=O)O | – | > 100 µM | – | > 100 µM | – | – | – | > 100 µM | – | > 100 µM | – | > 100 µM | – | > 100 µM | – | > 100 µM | – | > 100 µM | – | > 100 µM |
| COc1cc(Oc2c(O)c(C)c(OC)c(C(C)=O)c2O)c(C(C)=O)c(O)c1C | – | > 100 µM | – | > 100 µM | – | > 100 µM | – | > 100 µM | – | > 100 µM | – | > 100 µM | – | – | – | > 100 µM | – | > 100 µM | – | > 100 µM |
| O=C1CC2C(=O)N(Cc3ccccc3)C1C(S(=O)(=O)c1ccccc1)C2S(=O)(=O)c1ccccc1 (configuration not stated) | – | 12.1 µM | – | 15.9 µM | – | 3.72 µM | – | 9.68 µM | – | 4.22 µM | – | 5.22 µM | – | – | – | 36 µM | – | 3.18 µM | – | 1.85 µM |
| CC(=O)NC(CCCN(Cc1ccccc1)C(=O)N(CCCl)N=O)C(=O)NCc1ccccc1 (configuration not stated) | – | > 100 µM | – | > 100 µM | – | > 100 µM | – | > 58.7 µM | – | > 100 µM | – | > 100 µM | – | > 100 µM | – | > 100 µM | – | > 100 µM | – | – |
| CC1CC2(CC[C@@H]1O)OCCO2 (some centres not stated) | – | – | – | > 100 µM | – | – | – | > 100 µM | – | > 100 µM | – | > 100 µM | – | > 100 µM | – | > 100 µM | – | > 100 µM | – | > 100 µM |
| C/C=C(/CCCCNCCCC)[Si](C)(C)C | – | 26.2 µM | – | 26.6 µM | – | 29.4 µM | – | 25.5 µM | – | 27.7 µM | – | 32.7 µM | – | 25.8 µM | – | 37 µM | – | 27.9 µM | – | – |
| O=C(Cc1ccccc1)N/N=C(\C1=Nc2ccc([N+](=O)[O-])cc2NC1O)C(O)c1ccc([N+](=O)[O-])cc1 (configuration not stated) | – | > 100 µM | – | > 100 µM | – | – | – | > 100 µM | – | > 100 µM | – | > 100 µM | – | > 100 µM | – | > 100 µM | – | > 100 µM | – | > 100 µM |
| CCOc1ccc(NC(=O)CC2SC(N)=NC2=O)cc1 (configuration not stated) | – | > 100 µM | – | > 100 µM | – | > 100 µM | – | > 100 µM | – | > 100 µM | – | > 100 µM | – | > 100 µM | – | > 100 µM | – | > 100 µM | – | – |
| COC(=O)[C@]1(C)CCC[C@@]2(C)C1CCC1=C[C@@]3(C(C)C)CC[C@]12OO3 (some centres not stated) | – | 66.6 µM | – | 73 µM | – | – | – | 40.9 µM | – | 68.3 µM | – | 72.3 µM | – | > 100 µM | – | > 100 µM | – | 45 µM | – | – |
| CC(C)[C@@H](COC(C)(C)C)N=CN1CCc2c([nH]c3ccccc23)C1 | – | > 100 µM | – | > 100 µM | – | > 100 µM | – | > 100 µM | – | > 100 µM | – | > 100 µM | – | > 100 µM | – | > 100 µM | – | > 100 µM | – | – |
| COc1ccccc1-c1c(C)nn2c(NCc3ccccn3)cc(C)nc12 | 34.8 µM | > 50 µM | 3.75 µM | > 50 µM | > 36.9 µM | > 50 µM | 36.4 µM | > 50 µM | 24.7 µM | > 50 µM | 16.9 µM | > 50 µM | – | – | > 37.5 µM | > 50 µM | 1.92 µM | > 50 µM | 12.4 µM | > 50 µM |
| O=C(Nc1cc(Cl)c(Cl)cc1Cl)C(=O)C(C(=O)c1ccc(Cl)c(Cl)c1)C1OC(=O)c2ccccc21 (configuration not stated) | – | 41.8 µM | – | 28.8 µM | – | – | – | 27.3 µM | – | 27.7 µM | – | 33.5 µM | – | 58 µM | – | – | – | 33.8 µM | – | 46.3 µM |
| Cc1cc(N2CCCC2)nc(N(CCCNc2ccnc3cc(Cl)ccc23)Cc2ccc3c(c2)OCO3)n1 | 2.89 µM | 16.6 µM | 0.511 µM | 3.3 µM | 1.3 µM | 2.74 µM | 1.11 µM | 2.8 µM | 1.37 µM | 3.04 µM | 1.78 µM | 3.38 µM | 3.16 µM | > 100 µM | 1.38 µM | 4.33 µM | 1.39 µM | 3 µM | – | – |
| Clc1ccc2nc(Oc3ccccc3)cnc2c1 | > 100 µM | > 100 µM | > 100 µM | > 100 µM | > 100 µM | > 100 µM | > 100 µM | > 100 µM | > 100 µM | > 100 µM | > 100 µM | > 100 µM | > 100 µM | > 100 µM | – | – | > 100 µM | > 100 µM | > 100 µM | > 100 µM |
| CCOC(=O)c1cnn(-c2ccnc3c(C(F)(F)F)cccc23)c1N | > 100 µM | > 100 µM | > 100 µM | > 100 µM | > 100 µM | > 100 µM | > 100 µM | > 100 µM | – | – | > 100 µM | > 100 µM | > 100 µM | > 100 µM | > 100 µM | > 100 µM | > 100 µM | > 100 µM | > 100 µM | > 100 µM |
| C[C@H](CSC(=O)c1ccccc1)C(=O)N1c2ccccc2C[C@H]1C(=O)O | – | > 100 µM | – | > 100 µM | – | > 100 µM | – | > 10 µM | – | – | – | > 100 µM | – | > 100 µM | – | > 100 µM | – | > 100 µM | – | > 100 µM |
| CN(C)c1ccc(C(N)=O)cn1 | – | > 100 µM | – | > 100 µM | – | > 100 µM | – | > 100 µM | – | – | – | > 100 µM | – | > 100 µM | – | > 100 µM | – | > 100 µM | – | – |
